Laboratory results reported in article PMC4843002, “Identification of pyrazolopyridazinones as PDEδ inhibitors” (Nature Communications, 2016).

How the values were obtained:
[1] = test system: COMT (catechol-O-methyl transferase); experiment: Cerep enzyme and cell-based assays; format: biochemical; conditions: 5 µM
CCK1 (CCKA) (h) = target: T1, CCK1 (CCKA) (h) (Homo sapiens, UniProt P32238); experiment: Cerep binding, agonist radioligand; conditions: read-out: % Inhibition of Control Specific Binding
T1 construct: purchased Eurofins Pharma Discovery Services (CEREP diversity panel)

KATP channel = experiment: Cerep binding, antagonist radioligand; conditions: 5 µM
opioid (non-selective) = experiment: Cerep binding, antagonist radioligand; conditions: 5 µM
MC4 (h) = target: T2, MC4 (h) (Homo sapiens, UniProt P32245); experiment: Cerep binding, agonist radioligand; conditions: read-out: % Inhibition of Control Specific Binding
T2 construct: purchased Eurofins Pharma Discovery Services (CEREP diversity panel)
T2 sequence (P32245 whole entry): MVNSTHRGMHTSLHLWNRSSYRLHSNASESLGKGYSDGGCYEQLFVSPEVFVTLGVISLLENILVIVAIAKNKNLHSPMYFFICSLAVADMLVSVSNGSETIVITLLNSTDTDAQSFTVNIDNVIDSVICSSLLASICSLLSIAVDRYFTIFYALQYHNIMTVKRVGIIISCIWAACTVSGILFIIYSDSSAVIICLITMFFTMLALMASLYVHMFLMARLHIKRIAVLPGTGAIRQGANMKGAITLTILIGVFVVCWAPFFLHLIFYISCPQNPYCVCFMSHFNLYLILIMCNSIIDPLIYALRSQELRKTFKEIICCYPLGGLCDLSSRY

Na+ channel (site 2) = experiment: Cerep binding, antagonist radioligand; conditions: 5 µM
CCK2 (CCKB) (h) = target: T3, CCK2 (CCKB) (h) (Homo sapiens, UniProt P32239); experiment: Cerep binding, agonist radioligand; conditions: read-out: % Inhibition of Control Specific Binding
T3 construct: purchased Eurofins Pharma Discovery Services (CEREP diversity panel)

A2A (h) = target: T4, A2A (h) (Homo sapiens, UniProt P29274); experiment: Cerep binding, agonist radioligand; conditions: read-out: % Inhibition of Control Specific Binding
T4 construct: purchased Eurofins Pharma Discovery Services (CEREP diversity panel)
T4 sequence (P29274 whole entry): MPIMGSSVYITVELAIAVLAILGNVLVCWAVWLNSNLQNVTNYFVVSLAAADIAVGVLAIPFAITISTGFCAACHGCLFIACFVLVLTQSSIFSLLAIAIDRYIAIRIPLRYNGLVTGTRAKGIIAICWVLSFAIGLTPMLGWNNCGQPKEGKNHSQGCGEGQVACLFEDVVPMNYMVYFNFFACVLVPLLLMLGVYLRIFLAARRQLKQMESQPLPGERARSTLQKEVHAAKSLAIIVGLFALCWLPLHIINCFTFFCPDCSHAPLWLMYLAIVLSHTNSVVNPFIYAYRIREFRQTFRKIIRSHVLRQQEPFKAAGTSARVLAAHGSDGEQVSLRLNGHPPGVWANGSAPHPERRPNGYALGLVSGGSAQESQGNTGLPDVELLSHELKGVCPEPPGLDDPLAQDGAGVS

5-HT (non-selective) = experiment: Cerep binding, agonist radioligand; conditions: 5 µM
CysLT1 (LTD4) (h) = target: T5, CysLT1 (LTD4) (h) (Homo sapiens, UniProt Q9Y271); experiment: Cerep binding, agonist radioligand; conditions: read-out: % Inhibition of Control Specific Binding
T5 construct: purchased Eurofins Pharma Discovery Services (CEREP diversity panel)
T5 sequence (Q9Y271 whole entry): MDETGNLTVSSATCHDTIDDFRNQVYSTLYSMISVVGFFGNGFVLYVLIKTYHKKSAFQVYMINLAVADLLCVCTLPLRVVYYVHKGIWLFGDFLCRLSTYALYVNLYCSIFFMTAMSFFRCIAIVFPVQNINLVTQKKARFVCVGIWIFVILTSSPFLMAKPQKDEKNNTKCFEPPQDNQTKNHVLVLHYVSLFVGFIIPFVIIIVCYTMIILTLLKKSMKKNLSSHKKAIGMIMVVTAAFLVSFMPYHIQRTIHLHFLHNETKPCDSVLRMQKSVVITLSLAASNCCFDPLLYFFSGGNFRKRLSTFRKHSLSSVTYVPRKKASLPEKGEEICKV

I2 = experiment: Cerep binding, antagonist radioligand; conditions: 5 µM
alpha 2 (non-selective) = experiment: Cerep binding, antagonist radioligand; conditions: 5 µM
PDE5 (h) (non-selective) = target: T6, PDE5 (h) (non-selective) (Homo sapiens, UniProt O76074); experiment: Cerep enzyme and cell-based assays; format: biochemical; conditions: read-out: % Inhibition of Control Values
T6 construct: Eurofins Pharma Discovery Services (CEREP diversity panel, outsourced assay)

[2] = target: choline transporter (CHT1) (h) (Homo sapiens, UniProt Q9GZV3); experiment: Cerep binding, antagonist radioligand; conditions: read-out: % Inhibition of Control Specific Binding
ETB (h) = target: T7, ETB (h) (Homo sapiens, UniProt P24530); experiment: Cerep binding, agonist radioligand; conditions: read-out: % Inhibition of Control Specific Binding
T7 construct: purchased Eurofins Pharma Discovery Services (CEREP diversity panel)
T7 sequence (P24530 27-442): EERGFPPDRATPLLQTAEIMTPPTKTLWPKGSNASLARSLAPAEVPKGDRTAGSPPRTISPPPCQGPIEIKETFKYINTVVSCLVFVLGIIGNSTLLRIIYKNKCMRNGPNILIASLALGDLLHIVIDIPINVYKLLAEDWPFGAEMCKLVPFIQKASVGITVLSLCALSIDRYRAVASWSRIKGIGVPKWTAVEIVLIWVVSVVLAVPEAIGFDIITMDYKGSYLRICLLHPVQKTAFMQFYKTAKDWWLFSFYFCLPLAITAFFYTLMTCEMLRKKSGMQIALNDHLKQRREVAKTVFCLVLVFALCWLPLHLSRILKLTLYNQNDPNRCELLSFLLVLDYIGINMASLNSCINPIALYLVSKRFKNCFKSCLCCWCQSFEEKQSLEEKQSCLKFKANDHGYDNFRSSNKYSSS

CRF1 (h) = target: T8, CRF1 (h) (Homo sapiens, UniProt P34998); experiment: Cerep binding, agonist radioligand; conditions: read-out: % Inhibition of Control Specific Binding
T8 construct: purchased Eurofins Pharma Discovery Services (CEREP diversity panel)

V2 (h) = target: T9, V2 (h) (Homo sapiens, UniProt P30518); experiment: Cerep binding, agonist radioligand; conditions: read-out: % Inhibition of Control Specific Binding
T9 construct: purchased Eurofins Pharma Discovery Services (CEREP diversity panel)

H3 (h) = target: T10, H3 (h) (Homo sapiens, UniProt Q9Y5N1); experiment: Cerep binding, agonist radioligand; conditions: read-out: % Inhibition of Control Specific Binding
T10 construct: purchased Eurofins Pharma Discovery Services (CEREP diversity panel)

GR (h) = target: T11, GR (h) (Homo sapiens, UniProt P04150); experiment: Cerep binding, agonist radioligand; conditions: read-out: % Inhibition of Control Specific Binding
T11 construct: purchased Eurofins Pharma Discovery Services (CEREP diversity panel)

NOP (ORL1) (h) = target: T12, NOP (ORL1) (h) (Homo sapiens, UniProt P41146); experiment: Cerep binding, agonist radioligand; conditions: read-out: % Inhibition of Control Specific Binding
T12 construct: purchased Eurofins Pharma Discovery Services (CEREP diversity panel)
T12 sequence (P41146 whole entry): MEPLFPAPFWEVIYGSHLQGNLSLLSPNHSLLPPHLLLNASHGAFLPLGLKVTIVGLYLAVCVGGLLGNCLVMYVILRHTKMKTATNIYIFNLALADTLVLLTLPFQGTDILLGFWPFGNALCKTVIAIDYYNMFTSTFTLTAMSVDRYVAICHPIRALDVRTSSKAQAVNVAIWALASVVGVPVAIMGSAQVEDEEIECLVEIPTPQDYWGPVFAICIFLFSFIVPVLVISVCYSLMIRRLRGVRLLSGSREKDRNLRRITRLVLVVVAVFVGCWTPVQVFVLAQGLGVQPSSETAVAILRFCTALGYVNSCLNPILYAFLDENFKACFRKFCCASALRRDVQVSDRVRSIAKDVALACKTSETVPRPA

PDE1B (h) = target: T13, PDE1B (h) (Homo sapiens, UniProt Q01064); experiment: Cerep enzyme and cell-based assays; format: biochemical; conditions: read-out: % Inhibition of Control Values
T13 construct: purchased Eurofins Pharma Discovery Services (CEREP diversity panel)
T13 sequence (Q01064 whole entry): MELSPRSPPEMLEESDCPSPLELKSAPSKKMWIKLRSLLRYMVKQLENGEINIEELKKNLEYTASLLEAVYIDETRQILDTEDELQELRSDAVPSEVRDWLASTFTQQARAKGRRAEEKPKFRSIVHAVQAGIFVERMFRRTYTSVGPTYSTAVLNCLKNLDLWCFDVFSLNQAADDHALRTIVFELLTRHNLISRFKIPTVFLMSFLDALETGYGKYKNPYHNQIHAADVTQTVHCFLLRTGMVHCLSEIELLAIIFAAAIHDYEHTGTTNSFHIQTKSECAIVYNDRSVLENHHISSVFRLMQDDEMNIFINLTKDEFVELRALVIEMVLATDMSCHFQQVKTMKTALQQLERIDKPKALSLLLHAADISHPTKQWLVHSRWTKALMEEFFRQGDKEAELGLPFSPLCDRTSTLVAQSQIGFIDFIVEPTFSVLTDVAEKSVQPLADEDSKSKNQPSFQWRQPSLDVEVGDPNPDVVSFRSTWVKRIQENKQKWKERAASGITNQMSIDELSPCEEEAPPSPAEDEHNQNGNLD

D2S (h) = target: T14, D2S (h) (Homo sapiens, UniProt P14416); experiment: Cerep binding, antagonist radioligand; conditions: read-out: % Inhibition of Control Specific Binding
T14 construct: purchased Eurofins Pharma Discovery Services (CEREP diversity panel)
T14 sequence (P14416 1-414 isoform P14416-2): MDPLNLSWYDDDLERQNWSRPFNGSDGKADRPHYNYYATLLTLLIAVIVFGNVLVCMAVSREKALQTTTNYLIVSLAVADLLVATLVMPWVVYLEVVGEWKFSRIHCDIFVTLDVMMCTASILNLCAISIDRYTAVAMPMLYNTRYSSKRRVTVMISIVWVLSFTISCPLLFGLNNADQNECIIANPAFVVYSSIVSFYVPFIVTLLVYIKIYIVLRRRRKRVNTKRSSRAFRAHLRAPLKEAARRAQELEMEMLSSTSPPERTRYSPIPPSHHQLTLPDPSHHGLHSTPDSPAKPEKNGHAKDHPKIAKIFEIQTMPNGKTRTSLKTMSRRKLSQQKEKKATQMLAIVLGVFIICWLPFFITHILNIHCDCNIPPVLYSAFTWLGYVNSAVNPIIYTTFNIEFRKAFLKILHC

[3] = test system: guanylyl cyclase (h) (activator effect); experiment: Cerep enzyme and cell-based assays; format: biochemical, human; conditions: 5 µM
PKCalpha (h) = target: T15, PKCalpha (h) (Homo sapiens, UniProt P17252); experiment: Cerep enzyme and cell-based assays; format: biochemical; conditions: read-out: % Inhibition of Control Values
T15 construct: Eurofins Pharma Discovery Services (CEREP diversity panel, outsourced assay)

V1a (h) = target: T16, V1a (h) (Homo sapiens, UniProt P37288); experiment: Cerep binding, agonist radioligand; conditions: read-out: % Inhibition of Control Specific Binding
T16 construct: purchased Eurofins Pharma Discovery Services (CEREP diversity panel)

PCP = experiment: Cerep binding, antagonist radioligand; conditions: 5 µM
5-lipoxygenase (h) = target: T17, 5-lipoxygenase (h) (Homo sapiens, UniProt P09917); experiment: Cerep enzyme and cell-based assays; format: biochemical; conditions: read-out: % Inhibition of Control Values
T17 construct: purchased Eurofins Pharma Discovery Services (CEREP diversity panel)
T17 sequence (P09917 whole entry): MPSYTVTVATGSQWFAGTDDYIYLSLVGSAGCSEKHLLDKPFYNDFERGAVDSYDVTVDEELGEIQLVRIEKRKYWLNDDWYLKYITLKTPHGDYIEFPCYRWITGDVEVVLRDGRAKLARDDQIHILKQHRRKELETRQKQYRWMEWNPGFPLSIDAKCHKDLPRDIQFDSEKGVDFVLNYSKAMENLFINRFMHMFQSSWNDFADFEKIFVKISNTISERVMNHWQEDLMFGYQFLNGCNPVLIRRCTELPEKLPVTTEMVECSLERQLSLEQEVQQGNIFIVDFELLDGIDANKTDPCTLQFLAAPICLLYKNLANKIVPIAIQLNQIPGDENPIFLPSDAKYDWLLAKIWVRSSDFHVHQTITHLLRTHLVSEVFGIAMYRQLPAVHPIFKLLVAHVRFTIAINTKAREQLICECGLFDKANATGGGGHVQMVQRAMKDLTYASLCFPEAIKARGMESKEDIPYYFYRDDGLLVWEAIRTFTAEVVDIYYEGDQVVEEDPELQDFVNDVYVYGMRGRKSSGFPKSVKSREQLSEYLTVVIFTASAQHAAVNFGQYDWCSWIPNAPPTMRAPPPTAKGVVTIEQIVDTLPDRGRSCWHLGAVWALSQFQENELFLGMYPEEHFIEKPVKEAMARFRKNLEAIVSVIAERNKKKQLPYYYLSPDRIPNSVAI

[4] = test system: Ca2+ channel (L, diltiazem site) (benzothiazepines); experiment: Cerep binding, antagonist radioligand; conditions: 5 µM
HDAC3 (h) = target: T18, HDAC3 (h) (Homo sapiens, UniProt O15379); experiment: Cerep enzyme and cell-based assays; format: biochemical; conditions: read-out: % Inhibition of Control Values
T18 construct: Eurofins Pharma Discovery Services (CEREP diversity panel, outsourced assay)
T18 sequence (O15379 whole entry): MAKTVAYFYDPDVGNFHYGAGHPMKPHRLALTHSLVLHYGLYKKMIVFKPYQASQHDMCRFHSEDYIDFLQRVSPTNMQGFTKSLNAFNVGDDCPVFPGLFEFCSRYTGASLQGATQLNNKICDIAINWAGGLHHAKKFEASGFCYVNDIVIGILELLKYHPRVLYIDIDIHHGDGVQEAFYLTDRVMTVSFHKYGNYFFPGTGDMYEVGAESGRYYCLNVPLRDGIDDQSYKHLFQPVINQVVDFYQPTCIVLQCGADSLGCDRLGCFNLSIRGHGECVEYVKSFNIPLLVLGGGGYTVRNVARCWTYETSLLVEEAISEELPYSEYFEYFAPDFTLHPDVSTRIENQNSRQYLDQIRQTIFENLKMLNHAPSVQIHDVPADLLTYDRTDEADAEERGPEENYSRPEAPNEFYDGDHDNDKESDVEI
T18 sequence (Q9Y618 395-489 partner limits assumed): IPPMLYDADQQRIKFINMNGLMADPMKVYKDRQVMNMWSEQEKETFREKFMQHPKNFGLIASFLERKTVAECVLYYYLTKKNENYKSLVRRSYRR

D1 (h) = target: T19, D1 (h) (Homo sapiens, UniProt P21728); experiment: Cerep binding, antagonist radioligand; conditions: read-out: % Inhibition of Control Specific Binding
T19 construct: purchased Eurofins Pharma Discovery Services (CEREP diversity panel)
T19 sequence (P21728 whole entry): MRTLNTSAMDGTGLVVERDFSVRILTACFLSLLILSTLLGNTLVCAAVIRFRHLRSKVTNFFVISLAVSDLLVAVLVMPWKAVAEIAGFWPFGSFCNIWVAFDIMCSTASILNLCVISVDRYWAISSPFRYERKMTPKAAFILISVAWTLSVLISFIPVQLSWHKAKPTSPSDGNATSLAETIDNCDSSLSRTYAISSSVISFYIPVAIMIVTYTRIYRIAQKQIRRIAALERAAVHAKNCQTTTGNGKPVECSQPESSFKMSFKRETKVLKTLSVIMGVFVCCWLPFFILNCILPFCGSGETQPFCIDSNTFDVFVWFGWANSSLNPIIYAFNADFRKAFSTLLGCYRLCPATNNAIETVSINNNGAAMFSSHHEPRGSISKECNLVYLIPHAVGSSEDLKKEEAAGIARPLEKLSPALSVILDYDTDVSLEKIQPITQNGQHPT

S6P phosphorylation = experiment: western blot, S6P phosphorylation in Panc-Tu-I; conditions: for EGF-induced S6P phosphorylation: 1 h, 5 μM Deltarasin or 20 μM Deltazinone 1, 5 min EGF
Procedure: To examine whether PDEδ inhibition by Deltarasin and Deltazinone 1 downregulates the signal transduction via these pathways, we examined the phosphorylation of extracellular signal regulated kinase (Erk) and S6 Ribosomal Protein (S6P) in the oncogenic KRas-dependent Panc-Tu-1 and KRas-independent PANC-1 cells. […] Cells were lysed with RIPA-buffer (20 mM Tris pH 7.5, 150 mM NaCl, 0.5 mM Na2 EDTA, 1 % sodium deoxycholate, 0.1% sodium dodecyl sulfate, 1% IGEPAL supplemented with Complete Mini EDTA-free protease inhibitor (Roche Applied Science) and 1% phosphatase inhibitor cocktail 2 and 3 (P5726 and P0044, Sigma Aldrich), scraped off after 5 min on ice and centrifuged at 14,000g for 20 min at 4 °C. SDS–polyacrylamide gel electrophoresis was carried out with 10–25 μg of whole-cell lysate from each sample. The gels were blotted onto polyvinylidene difluoride membrane (Millipore) and blocked for 1 h at room temperature. […] Blots were scanned on a LI-COR Odyssey imaging system.
Western blots were quantified using ImageJ. The background of the blots was subtracted by applying the rolling ball subtraction with a radius of 50 pixels. Afterwards the integrated intensity of the bands was measured.

M (non-selective) = experiment: Cerep binding, antagonist radioligand; conditions: 5 µM
TRH1 (h) = target: T20, TRH1 (h) (Homo sapiens, UniProt P34981); experiment: Cerep binding, agonist radioligand; conditions: read-out: % Inhibition of Control Specific Binding
T20 construct: purchased Eurofins Pharma Discovery Services (CEREP diversity panel)
T20 sequence (P34981 whole entry): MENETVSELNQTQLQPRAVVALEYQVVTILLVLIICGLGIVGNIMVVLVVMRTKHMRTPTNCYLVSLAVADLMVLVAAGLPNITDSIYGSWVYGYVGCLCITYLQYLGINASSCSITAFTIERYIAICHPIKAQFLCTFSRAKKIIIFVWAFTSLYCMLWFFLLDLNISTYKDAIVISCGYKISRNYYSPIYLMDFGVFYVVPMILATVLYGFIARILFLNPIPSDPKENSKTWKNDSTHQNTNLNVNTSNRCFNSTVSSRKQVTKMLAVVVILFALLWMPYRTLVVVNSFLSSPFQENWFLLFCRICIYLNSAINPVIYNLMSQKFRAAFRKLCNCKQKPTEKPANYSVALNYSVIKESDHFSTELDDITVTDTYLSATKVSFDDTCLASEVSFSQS

Eg5 (h) = target: T21, Eg5 (h) (Homo sapiens, UniProt P52732); experiment: Cerep enzyme and cell-based assays; format: biochemical; conditions: read-out: % Inhibition of Control Values
T21 construct: Eurofins Pharma Discovery Services (CEREP diversity panel, outsourced assay)

[5] = test system: Ca2+ channel (L, verapamil site) (phenylalkylamine); experiment: Cerep binding, antagonist radioligand; conditions: 5 µM
EP2 (h) = target: T22, EP2 (h) (Homo sapiens, UniProt P43116); experiment: Cerep binding, agonist radioligand; conditions: read-out: % Inhibition of Control Specific Binding
T22 construct: purchased Eurofins Pharma Discovery Services (CEREP diversity panel)

PANC-1 cells = format: cell-based
Procedure: (§1) RTCA was performed using 16-well E-plates on the Dual Plate xCELLigence instrument (Roche Applied Science, Indianapolis, IN). This system measures a dimensionless parameter called cell index, which evaluates the ionic environment at an electrode/solution interface and integrates information on cell number. Depending on the cell line 5 × 10^3–1 × 10^4 cells were plated in each well of the 16-well plates in 200 μl of cell culture medium. After seeding, cells were allowed to settle for 30 min at room temperature before being inserted into the xCELLigence instrument in a humidified incubator at 37 °C with 10% CO2. For RTCA experiments assaying cells stably expressing the inducible shRNA transgene, cells were seeded onto the E-plates in medium supplemented with 200 ng ml^−1 doxycycline. For RTCA experiments, the cells were treated with Deltarasin or Deltazinone 1 after reaching a steady growth (24 h/48 h). The small-molecule inhibitors were added at indicated time points and in the indicated concentrations. […] Continuous impedance measurements were then monitored every 15 min for up to 200 h. All assays were performed in duplicates. The cell index was normalized to 1 at the time point of drug administration. […]

BxPC-3 cells = format: cell-based
Procedure: as §1

D4.4 (h) = target: T23, D4.4 (h) (Homo sapiens, UniProt P21917); experiment: Cerep binding, antagonist radioligand; conditions: read-out: % Inhibition of Control Specific Binding
T23 construct: purchased Eurofins Pharma Discovery Services (CEREP diversity panel)

SMILES: Cc1ccc(-n2nc3c(=O)n(CCCC(=O)NCC(C)c4ccccc4)nc(C)c3c2C)cc1 (stereo not shown) [2k]
- % Inhibition of Control Values [1]: 11%
- inhibition at 5 µM (CCK1 (CCKA) (h)): 22%
- % Inhibition of Control Specific Binding (KATP channel): 16%
- % Inhibition of Control Specific Binding (opioid (non-selective)): 42%
- inhibition at 5 µM (MC4 (h)): -1%
- % Inhibition of Control Specific Binding (Na+ channel (site 2)): 4%
- inhibition at 5 µM (CCK2 (CCKB) (h)): -22%
- inhibition at 5 µM (A2A (h)): -6%
- % Inhibition of Control Specific Binding (5-HT (non-selective)): -25%
- inhibition at 5 µM (CysLT1 (LTD4) (h)): 0%
- % Inhibition of Control Specific Binding (I2): 39%
- % Inhibition of Control Specific Binding (alpha 2 (non-selective)): 3%
- inhibition at 5 µM (PDE5 (h) (non-selective)): 3%
- inhibition at 5 µM [2]: 18%
- inhibition at 5 µM (ETB (h)): -12%
- inhibition at 5 µM (CRF1 (h)): -43%
- inhibition at 5 µM (V2 (h)): -4%
- inhibition at 5 µM (H3 (h)): -10%
- inhibition at 5 µM (GR (h)): -9%
- inhibition at 5 µM (NOP (ORL1) (h)): 6%
- inhibition at 5 µM (PDE1B (h)): 7%
- inhibition at 5 µM (D2S (h)): -1%
- % Inhibition of Control Values [3]: 3%
- inhibition at 5 µM (PKCalpha (h)): 7%
- inhibition at 5 µM (V1a (h)): -4%
- % Inhibition of Control Specific Binding (PCP): -8%
- inhibition at 5 µM (5-lipoxygenase (h)): 1%
- % Inhibition of Control Specific Binding [4]: -4%
- inhibition at 5 µM (HDAC3 (h)): 0%
- inhibition at 5 µM (D1 (h)): 2%
- S6P phosphorylation (S6P phosphorylation; 20 μM, longer incubation times (>3 h)): further decreased
- EGF-induced S6P phosphorylation (S6P phosphorylation): reduced S6P phosphorylation
- % Inhibition of Control Specific Binding (M (non-selective)): 21%
- inhibition at 5 µM (TRH1 (h)): 7%
- inhibition at 5 µM (Eg5 (h)): 3%
- % Inhibition of Control Specific Binding [5]: -23%
- inhibition at 5 µM (EP2 (h)): 6%
- effect on growth (PANC-1 cells; PANC-1, doses up to 24 μM): little or no growth inhibitory effect
- effect on growth (BxPC-3 cells; BxPC-3, doses up to 24 μM): little or no growth inhibitory effect
- inhibition at 5 µM (D4.4 (h)): 2%

SMILES: c1ccc(Cn2c(-c3ccc(OC[C@H](C4CCNCC4)n4c(-c5ccccc5)nc5ccccc54)cc3)nc3ccccc32)cc1 [Deltarasin, reference compound]
- % Inhibition of Control Values [1]: 4%
- inhibition at 5 µM (CCK1 (CCKA) (h)): 58%
- % Inhibition of Control Specific Binding (KATP channel): -10%
- % Inhibition of Control Specific Binding (opioid (non-selective)): 12%
- inhibition at 5 µM (MC4 (h)): 32%
- % Inhibition of Control Specific Binding (Na+ channel (site 2)): 83%
- inhibition at 5 µM (CCK2 (CCKB) (h)): 29%
- inhibition at 5 µM (A2A (h)): 28%
- % Inhibition of Control Specific Binding (5-HT (non-selective)): -1%
- inhibition at 5 µM (CysLT1 (LTD4) (h)): -5%
- % Inhibition of Control Specific Binding (I2): 19%
- % Inhibition of Control Specific Binding (alpha 2 (non-selective)): 1%
- inhibition at 5 µM (PDE5 (h) (non-selective)): 92%
- inhibition at 5 µM [2]: 27%
- inhibition at 5 µM (ETB (h)): 15%
- inhibition at 5 µM (CRF1 (h)): 34%
- inhibition at 5 µM (V2 (h)): 20%
- inhibition at 5 µM (H3 (h)): -2%
- inhibition at 5 µM (GR (h)): 40%
- inhibition at 5 µM (NOP (ORL1) (h)): 10%
- inhibition at 5 µM (PDE1B (h)): 12%
- inhibition at 5 µM (D2S (h)): 98%
- % Inhibition of Control Values [3]: 0%
- inhibition at 5 µM (PKCalpha (h)): 66%
- inhibition at 5 µM (V1a (h)): 21%
- % Inhibition of Control Specific Binding (PCP): -6%
- inhibition at 5 µM (5-lipoxygenase (h)): 33%
- % Inhibition of Control Specific Binding [4]: 61%
- inhibition at 5 µM (HDAC3 (h)): 23%
- inhibition at 5 µM (D1 (h)): 99%
- EGF-induced S6P phosphorylation (S6P phosphorylation): reduced in both lines
- % Inhibition of Control Specific Binding (M (non-selective)): 96%
- inhibition at 5 µM (TRH1 (h)): 42%
- inhibition at 5 µM (Eg5 (h)): 9%
- % Inhibition of Control Specific Binding [5]: 54%
- inhibition at 5 µM (EP2 (h)): 28%
- concentration resulting in rapid cell death (unspecific cytotoxicity) (PANC-1 cells; human): above 9 μM
- concentration resulting in rapid cell death (unspecific cytotoxicity) (BxPC-3 cells; human): above 9 μM
- inhibition at 5 µM (D4.4 (h)): 0%
